Measured values: EP1726305A1, “Zinc salt of omeprazole and its enantiomers” (Ratiopharm GmbH, priority 2005, dated 2006)
In brackets after ≈: the same amount, converted by molar mass. Read-outs that look alike come from different tables or passages of the source.

Experiments:
Format in all cases: physicochemical
[1] = Water content by Karl Fischer titration (Ph.Eur. 2.5.32); settings: oven temperature 130 °C
Description: Während das Magnesiumsalz als Trihydrat vorliegt und daher per se einen erheblichen Wassergehalt von etwa 6,23% aufweist, ist der Wassergehalt des Zinksalzes des (-)-Enantiomers des Omeprazols ausgesprochen gering und liegt bei nur etwa 0,8%, was ebenfalls einen überraschenden Vorteil des Zinksalzes des (-)-Enantiomers des Omeprazols ausmacht. Diese Messungen erfolgten mittels Karl-Fischer-Titration gemäß Ph.Eur. 2.5.32 mit dem Gerät Aqua 40.00 (Fa. ECH Halle). Das Gerät war ausgestattet mit einem Ausheizofen für Feststoffproben. Die Ausheiztemperatur für die untersuchte substanz betrug 130 °C: Als KF-Reagenz wurde eingesetzt Hydranal (Coulomat AG, Riedel-de Haen. Als Standard wurde verwendet Natriumtartrat-dihydrat (Apura, Merck).

[2] = Bulk density and tapped density (Ph.Eur. 2.9.15, Erweka SVM 22 volumeter, 1250 taps); settings: mean of three determinations; for Stampfdichte: after 1250 taps
Experimental: Sofern nichts anderes angegeben ist, erfolgt die Bestimmung der Schüttdichte und Stampfdichte nach Ph.Eur. 5.0 General Notices 2.9.15.
(§1) Insbesondere wurde zur Bestimmung der Schüttdichte jeweils etwa 250 ml Substanz, möglichst erschütterungsfrei in einen 250 ml Meßzylinder des Schütt-Stampf-Volumeters (Erweka SVM 22, Ser. Nr. 108.480.446) gefüllt und die Masse bestimmt (Schüttgewicht). Anschließend wurde der Meßzylinder 1250 Stampfvorgängen ausgesetzt, und das Stampfvolumen wurde abgelesen. Die Werte für die Schütt- bzw. Stampfdichte erhält man durch Division der Einwaage durch die jeweiligen Volumenwerte. Die Bestimmung wurde dreifach durchgeführt und aus den Einzelergebnissen jeweils der Mittelwert gebildet. Die Löslichkeit wurde bei Zimmertemperatur (25°C) bei verschiedenen pH-Werten untersucht, indem festes Material in den jeweiligen Medien durch Ultraschall und Schütteln soweit als möglich gelöst wurde. Die Proben wurden filtriert und über HPLC analysiert und mittels UV-Detektion vermessen.
Auf folgende Art und Weise wurde die Schüttdichte und die Stampfdichte des nach Beispiel 1 hergestellten Zinksalzes des (-)-Enantiomers des Omeprazols bestimmt und mit den auf entsprechende Art und Weise bestimmten Werten des Magnesiumsalzes des (-)-Enantiomers des Omeprazols verglichen. Das Magnesiumsalz des (-)-Enantiomers des Omeprazols wurde entsprechend der Offenbarung der WO 94/27988 hergestellt.
Zur Bestimmung der Schüttdichte wurden jeweils 250 ml Substanz möglichst erschütterungsfrei in einen 250 ml Meßzylinder des Schütt-Stampf-Volumeters (Erweka SVM 22, Ser. Nr. 108.480.446) gefüllt und die Masse bestimmt (Schüttgewicht). Anschließend wurde der Meßzylinder 1250 Stampfvorgängen ausgesetzt, und das Stampfvolumen wurde abgelesen. Die Werte für die Schütt- bzw. Stampfdichte erhält man durch Division der Einwaage durch die jeweiligen Volumenwerte. Die Bestimmung wurde dreifach durchgeführt und aus den Einzelergebnissen jeweils der Mittelwert gebildet. Tabelle 1

[3] = Solubility of saturated solutions in aqueous media, HPLC/UV; settings: for Löslichkeit: 0.5 h; for solubility thermodynamic at 0.5 h: saturated solution, n=1, 30 min ultrasound, read-out: Löslichkeit
Experimental: as §1
Die Löslichkeit des Zinksalzes des (-)-Enantiomers des Omeprazols und des Magnesiumsalzes des (-)-Enantiomers des Omeprazols wurde wie folgt bestimmt. In den unten aufgeführten Medien wurden gesättigte Lösungen (n=1) hergestellt, die nach 30 Minuten Ultraschallbehandlung noch einen deutlichen Bodensatz zeigten. Der Überstand der gesättigten Lösungen wurde über einen Membranfilter (0,45µm, Millex HV 25 mm, Millipore) filtriert und die klare Lösung mittels einer HPLC-Methode auf den Gehalt des gelösten Salzes untersucht. (Reversed Phase Chromatographie, Gradientenmodus, Säule: Luna C18(2), 150 x 3 mm, Phenomenex, Eluent 1: 10mM Tris-(hydroxymethyl)-aminomethan-Puffer pH 9.0, Eluent 2 : Acetonitril).
Das Zinksalz des (-)-Enantiomers des Omeprazols wurde gemäß Beispiel 1 vorstehend hergestellt, das Magnesiumsalz des (-)-Enantiomers des Omeprazols gemäß der Offenbarung der WO 94/27988.

Löslichkeit ([3]; demineralised water)	Löslichkeit ([3]; usp buffer, pH 6)	Löslichkeit ([3]; usp buffer, pH 7)	Compound	Wassergehalt [1]	Stampfdichte [2]	Schüttdichte [2]	solubility thermodynamic at 0.5 h ([3]; demineralised water, dem. Wasser) [µg/mL]	solubility thermodynamic at 0.5 h ([3]; usp buffer, pH 6, aqueous buffer, USP-Puffer pH 6,0) [µg/mL]	solubility thermodynamic at 0.5 h ([3]; usp buffer, pH 6, aqueous buffer, USP-Puffer pH 6,8) [µg/mL]	solubility thermodynamic at 0.5 h ([3]; usp buffer, pH 7, aqueous buffer, USP-Puffer pH 7,4) [µg/mL]
0,02 mg/ml	0,07 mg/ml	0,04 mg/ml	Zinksalz des (-)-Enantiomers von Omeprazol [Zinksalz des (-)-Enantiomers des Omeprazols]	~0,8%	481,59 g/l	415,62 g/l	–	–	–	–
–	–	–	COc1ccc2nc([S@@+]([O-])Cc3ncc(C)c(OC)c3C)[nH]c2c1 [Magnesiumsalz des (-)-Enantiomers des Omeprazols]	~6,23%	242,68 g/l	199,00 g/l	930 (≈ 2690 µM)	780 (≈ 2260 µM)	900 (≈ 2610 µM)	890 (≈ 2580 µM)
